According to US20040143014A1, “Therapeutic use of alpha-2-delta ligands” (Pfizer Inc, priority 2002, published 2004):
Entries after “also recorded” stand apart in the source; their conditions may differ.

Legend:
[1] = tested on: citric acid-induced cough; assay: Citric acid-induced cough in guinea pigs; conditions: for inhibition of the cough response to citric acid inhalation: aerosolized 1 mM inhaled for 10 min prior to citric acid 0.25 M; for motor activity (behavioral effect, not quantified): guinea pigs, 1 mM aerosolized for 10 min
Experimental: After the period of acclimatisation to laboratory conditions, animals were individually placed in a transparent perspex box (20×10×10 cm, Vetrotecnica, Italy) ventilated with a constant airflow of 400 ml/min. The tussive agents (citric acid 0.25 M) was nebulised via a mini-ultrasonic nebuliser (Ugo Basile, Italy). […] The appearance of cough was detected by means of a tie-clip microphone (Sony, Japan) and confirmed by the characteristic posture of the animal. The cough sounds were recorded and digitally stored. The number of elicited cough efforts was subsequently counted by a blind observer.
All experiments were carried out at the same time of day. To elicit cough, guinea pigs were exposed to aerosols of citric acid for 10 min.
(§1) Values were presented as mean±standard error of the mean (SEM). Comparisons between groups were made by one way analysis of variance (ANOVA) and the Dunnett's test for multiple comparisons. A p value of <0.05 was considered significant.

human small bronchi [2] = assay: Human bronchi contraction induced by acetylcholine, organ bath; conditions: 0.1 mM and 1 mM, 15 min before the stimulus; ACh 100 nM-10 mM
Experimental: The human samples were taken from 10 different patients who were undergoing lung resection for a solitary peripheral carcinoma. […] The bronchial rings (from 3 to 11 from each sample) were taken from the lobar or segmental bronchus of the lobe obtained at surgery, away from the tumor site.
Tissues were fixed to the base of the organ bath and connected to an isometric force transducer. […] During the initial stabilization period (90 min) tissues were washed six times. A challenge with acetyl choline (Ach) (1 mM) was performed and after washing, the tissue was allowed to equilibrate for an additional 90 min. To prevent peptide degradation phosphoramidon (1 μM) was added to the bath. Viability of the tissues was tested with the response to ACh (1 mM).
Experiments in human bronchi were performed in the presence of L-NAME (100 μM) to block the production of nitric oxide, indomethacin (5 μM) to block the production of prostanoids and propranolol (1 μM) to block β-adrenoceptors.
as §1

human small bronchi [3] = assay: Human bronchi contraction produced by electric field stimulation (EFS), organ bath; conditions: 0.1 mM and 1 mM; EFS 30 Hz, 0.5 ms, 10 sec, 70V; with L-NAME, indomethacin, propranolol
Description: In a separate set of experiments, human bronchi were electrically stimulated (30 Hz, 0.5 ms pulse width, duration 10 sec, 70V).

rat spinal tissues = conditions: only after inflammation or activation of protein kinase C; Pain 2003, 105, 133-141; cited from earlier work
[4] = tested on: citric acid induced cough; conditions: guinea pigs; Lalloo et al., Trevisani et al.; cited from earlier work

SMILES | inhibition of the cough response to citric acid inhalation [1] | motor activity (behavioral effect, not quantified) [1] | inhibition of the contraction caused by acetylcholine (human small bronchi [2]) | effect on the contractile response produced by EFS (human small bronchi [3]) | release of substance P and CGRP (rat spinal tissues) | effect on citric acid induced cough [4]
NC[C@]1(CC(=O)O)C[C@H]2CC[C@H]2C1 [Compound A, (1α, 3α,5α)(3-amino-methyl-bicyclo[3.2.0]hept-3-yl)-acetic acid] | significant inhibition | some degree of reduction in motor activity | did not produce any significant inhibition; also recorded: Absence of effect | significant (p<0.05) inhibitory effect |  | 
NCC1(CC(=O)O)CCCCC1 [gabapentin, 1-(aminomethyl)-cyclohexylacetic acid] | significant inhibition | some degree of reduction in motor activity | did not produce any significant inhibition; also recorded: Absence of effect | significant (p<0.05) inhibitory effect | reduce release of substance P and CGRP | 
C=C(C)[C@]12C[C@@H](C)[C@@]34O[C@](Cc5ccccc5)(O[C@@H]1[C@@H]3C=C(COC(=O)Cc1cc(I)c(O)c(OC)c1)C[C@]1(O)C(=O)C(C)=C[C@@H]41)O2 [iodo-resiniferatoxin] |  |  |  |  |  | inhibited this response
CC(C)C[C@H](CN)CC(=O)O [pregabalin, (S)-(+)-4-amino-3-(2-methylpropyl)butanoic acid] |  |  |  |  | reduce release of substance P and CGRP | 
Oc1cc2c(cc1O)CN(C(=S)NCCc1ccc(Cl)cc1)CCC2 [capsazepine] |  |  |  |  |  | inhibited this response
